# Measured values from patent publication US10166290B2, “Intralesional (Intratumoral) dinitrochlorobenzene and associated compounds coadministered with checkpoint inhibitors for cancer treatment including treatment of metastatic cutaneous cancers” (priority 2017, dated 2019).
# Read-outs that look alike come from different tables or passages of the source.
# What was measured:
# [1] = tested on: progressive, locally metastatic melanoma; assay: Intralesional DNCB injections into melanoma satellite / in transit metastatic lesions, case reports of three patients; assay type: in vivo, human
# Source text: Following are the case reports of three long term (over ten year) survivors treated with intralesional DNCB in the setting of what was apparently uncontrollable, progressive, locally metastatic melanoma, ordinarily lethal as a result of subsequent progressive metastatic disease to the liver, lungs and/or brain.
# Patient #1 was […] when they presented for treatment with progressive satellitosis and in transit metastases in their right leg. Four years previously they had undergone elsewhere a wide excision and split thickness skin grafting for a Clark Level IV melanoma of their right calf. […] One month prior to their presentation with satellitosis, recurrence had been noticed in the skin of the right popliteal fossa, and slightly higher. Their surgeon had planned to do a local excision in the region but had desisted when, at the time of their skin incision, multiple metastatic deposits were grossly visible in the deep dermal and subcutaneous regions. […] Two weeks after presentation, at the time of their first round of intralesional injections, the patient was noted to have 14 metastatic lesions in the posterior thigh region. These were each infiltrated with xylocaine and injected with DNCB. Each lesion was individually marked and followed. It was later estimated that 13 of the 14 lesions injected on this round ultimately regressed. A month after the first round of injections the patient underwent a second round of injections into five lesions on the posterior thigh. Four weeks after their second round of injections, a third round of injections was carried out for 10 lesions which had newly appeared. […] Accordingly the patient was taken to the operating room and an excision was carried out. […]
# Patient #3 was […] when they saw their local physician in upstate New York because of a pigmented posterior scalp lesion. Biopsy at that time was originally read as a (benign) blue nevus. […] The reoccurance led to a rebiopsy, now one year after the original biopsy which had been read as benign. […]
# [2] = Side effects of intralesional DNCB injections in the case reports; assay type: in vivo, human
# Source text: Patient #3 was […] when they saw their local physician in upstate New York because of a pigmented posterior scalp lesion. Biopsy at that time was originally read as a (benign) blue nevus. The diagnosis was later felt to be incorrect after a recurrent lesion at the same location continued to advance, becoming larger and bleeding when they combed their hair. The reoccurance led to a rebiopsy, now one year after the original biopsy which had been read as benign. […] A re-review of the slides from the first biopsy was then carried out. […] The patient was referred to the Memorial Sloane Kettering Hospital in New York City and was prepared for urgent wide excision and skin grafting of their posterior scalp lesions. […] The operative procedure was cancelled and the patient was referred. At the time of presentation initial radiographic evaluation for distant disease was negative. They received intralesional DNCB injections of between two and 10 satellite lesions every 4-6 weeks. On several occasions histologic or fine needle aspiration biopsy was carried out to continue to confirm the malignant nature of the lesions before intralesional injection. Biopsies were also carried out in order to confirm the absence of malignant cells in some post-injection inflammatory sites. […] Four months after their presentation, they were noted to have fewer than usual malignant lesions for injection, and received only 2 DNCB injections. However 1 month later they underwent 10 DNCB injections. One month after that they underwent DNCB injections of 8 malignant scalp lesions. Another month later they underwent intralesional DNCB injection of 10 malignant satellite scalp lesions. One and two months later they underwent DNCB injection of 8 lesions on each of the two visits. Five weeks later and 5 weeks after that, 2 lesions were injected on each visit. Chest xray and distant metastatic evaluations remained negative. The injection sites were being routinely pre-anesthetized with 0.5% lidocaine injections containing 1:100,000 epinephrine a few minutes before the injections with DNCB in acetone. Nevertheless the DNCB injection sites were uncomfortable for 4-6 hours after the lidocaine wore off, frequently with slight residual “soreness” the next day. Their last-mentioned round of two injections took place 11 months after the beginning of their injections. No new lesions were apparent for the next 2 months. The patient reported that after this last mentioned round of two injections, there was residual scalp discomfort for 8 days. […] Their strength and activity remained normal, including frequent vigorous dancing with their spouse. They often brought photographs of their scalp taken between visits. They occasionally reported sensations in uninjected areas in the scalp, ear or mastoid regions. No new lesions were apparent for 2 months.
# (§1) A drug mask and latex gloves should be used when working with the DNCB powder while preparing its dilution and preparation for injection. […] It should be noted that DNCB powder is irritating, and is also immunogenic because of its haptene like properties. […] Therefore preadministration of lidocaine or another injectable anesthetic should be used to infiltrate the tumor nodule injection site prior to the injection into the same site of the DNCB solution in acetone.
# [3] = Solubility of DNCB powder in acetone; assay type: physicochemical; conditions: acetone diluent
# Source text: as §1
# [4] = tested on: metastatic cutaneous tumor nodules; conditions: some 53 rounds of intralesional treatment, published data (3), cited from earlier work
smiles,measurement,setting,value
"O=[N+]([O-])c1ccc(Cl)c([N+](=O)[O-])c1 [DNCB, 2, 4 dinitrochlorobenzene]",time apparently disease free between last injections and death,"[1]; Patient #1, after sixth round of injections",30 years
same,time patient remained well with no evidence of metastasis after end of injections,[1]; Patient #2,12 years
same,period with no apparent melanoma following last intralesional injection,[1]; Patient #3,18 year
same,"constitutional symptoms such as fatigue, fever, or malaise",[2]; Patient #3,no constitutional symptoms
same,duration of injection site discomfort after the lidocaine wore off,"[2]; Patient #3, DNCB in acetone, sites pre-anesthetized with 0.5% lidocaine",4 to 6 h
same,facial swelling after injections,"[2]; Patient #3, after round of 3 lesions injected",mild facial swelling for a few days
same,duration of residual scalp discomfort,"[2]; Patient #3, after round of two injections 11 months after beginning",8 days
same,local effect of the DNCB solution in acetone on injection,[2]; solution in acetone,"irritating locally, and causes pain at the injection site"
same,solubility in acetone,[3],ready solubility
same,side effects of intralesional treatment,[4],"local, consisting of erythema or ulceration, not life-threatening, and not associated with any internal organ damage or defects"
same,side effects of intralesional treatment,[4]; listed as dinitrochlorobenzene,without the undesirable checkpoint inhibitor potential side effect of attacks against normal organs
same,side effects of intralesional treatment,[4]; listed as dinitrohalogenated compound,side effects essentially restricted to only side effects related to inflammation at the local injection sites
